#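 Test compounds were applied to cells in 96-well plates for 48 hours at 5 doses. GI50 marks 50% less growth.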 The source made the active and inactive calls. No stated cut-off is given here; in the data, active = GI50 up to about 1.1 µM and inactive = higher.
# Tests used:
# Experiment in all cases: growth of human tumour cells (NCI), 48 h
# [1] = test system: NCI-H460
# [2] = test system: UO-31
# [3] = test system: SN12C
# [4] = test system: NCI-H522
# [5] = test system: CCRF-CEM
# [6] = test system: MOLT-4
# [7] = test system: TK-10
# [8] = test system: OVCAR-4
# [9] = test system: HCT-116
# [10] = test system: SW-620
# [11] = test system: DU-145
# [12] = test system: MDA-N
# [13] = test system: SK-MEL-5
# [14] = test system: SF-268
# [15] = test system: SF-539
# [16] = test system: HCT-15
# [17] = test system: BT-549
# [18] = test system: 786-0
# [19] = test system: OVCAR-5
SMILES,GI50 [1],GI50 [2],GI50 [3],GI50 [4],GI50 [5],GI50 [6],GI50 [7],GI50 [8],GI50 [9],GI50 [10],GI50 [11],GI50 [12],GI50 [13],GI50 [14],GI50 [15],GI50 [16],GI50 [17],GI50 [18],GI50 [19]
C=C1CC/C=C(/C(=O)O)CC[C@H]2[C@@H]1CC2(C)C,> 100 µM (inactive),> 100 µM (inactive),> 100 µM (inactive),> 100 µM (inactive),> 100 µM (inactive),> 100 µM (inactive),> 100 µM (inactive),> 100 µM (inactive),> 100 µM (inactive),> 100 µM (inactive),> 100 µM (inactive),> 100 µM (inactive),> 100 µM (inactive),> 100 µM (inactive),> 100 µM (inactive),> 100 µM,> 100 µM (inactive),> 100 µM (inactive),> 100 µM (inactive)
COc1ccc(C(C)NNC(=O)c2ccncc2)c(OC)c1 (centres undefined),> 100 µM (inactive),> 100 µM (inactive),> 100 µM (inactive),> 100 µM (inactive),> 100 µM (inactive),> 100 µM (inactive),> 100 µM (inactive),> 100 µM (inactive),> 100 µM (inactive),> 100 µM (inactive),> 100 µM (inactive),> 100 µM (inactive),> 100 µM (inactive),> 100 µM (inactive),> 100 µM (inactive),> 100 µM,> 100 µM (inactive),> 100 µM (inactive),> 100 µM (inactive)
CCCCCCc1nn2c(-c3ccncc3)nnc2s1,> 10 µM (inactive),1.42 µM (inactive),> 10 µM (inactive),> 10 µM (inactive),> 10 µM (inactive),> 10 µM (inactive),> 10 µM (inactive),> 10 µM (inactive),> 10 µM (inactive),> 10 µM (inactive),> 10 µM (inactive),> 10 µM (inactive),> 10 µM (inactive),> 10 µM (inactive),> 10 µM (inactive),> 10 µM,> 10 µM (inactive),> 10 µM (inactive),> 10 µM (inactive)
C1=CC2C=CC(C=C1)P2c1ccccc1 (centres undefined),> 100 µM (inactive),> 100 µM (inactive),> 100 µM (inactive),> 100 µM (inactive),> 100 µM (inactive),> 100 µM (inactive),> 100 µM (inactive),> 100 µM (inactive),> 100 µM (inactive),> 100 µM (inactive),> 100 µM (inactive),> 100 µM (inactive),> 100 µM (inactive),> 100 µM (inactive),> 100 µM (inactive),> 100 µM,> 100 µM (inactive),> 100 µM (inactive),> 100 µM (inactive)
COc1cc2nc3c(=C(C#N)C#N)c4ccccc4n3c(=O)c2cc1OC,> 100 µM (inactive),> 100 µM (inactive),> 100 µM (inactive),> 100 µM (inactive),32.4 µM (inactive),> 100 µM (inactive),> 100 µM (inactive),> 100 µM (inactive),> 100 µM (inactive),> 100 µM (inactive),> 100 µM (inactive),> 100 µM (inactive),> 100 µM (inactive),75.7 µM (inactive),> 100 µM (inactive),> 100 µM,> 100 µM (inactive),> 100 µM (inactive),> 100 µM (inactive)
O=S(=O)(O)c1ccc2cccc(/N=N\c3c(O)ccc4ccccc34)c2c1,> 100 µM (inactive),> 100 µM (inactive),> 100 µM (inactive),> 100 µM (inactive),> 100 µM (inactive),> 100 µM (inactive),> 100 µM (inactive),> 100 µM (inactive),> 100 µM (inactive),> 100 µM (inactive),> 100 µM (inactive),> 100 µM (inactive),> 100 µM (inactive),> 100 µM (inactive),> 100 µM (inactive),> 100 µM,> 100 µM (inactive),> 100 µM (inactive),> 100 µM (inactive)
